# Data from the NIST ThermoML archive (doi:10.1021/acs.jced.5b01104).
# ± gives the expanded uncertainty stated by the source.
# Conditions: Liquid, Chromatography
smiles,measurement,setting,value
O [water],vapor or sublimation pressure,412.6 K,356 ± 28 kPa
same,vapor or sublimation pressure,443.2 K,792 ± 62 kPa
same,vapor or sublimation pressure,483.2 K,1902 ± 150 kPa
